Experiment: tests of the topical composition carried out on persons
Type: in vivo
Conditions: compared as hydrogel-soluble NSAID component at about 2-10% of the composition

In the case of `COC(=O)c1ccccc1O` [methyl salicylate], the “efficacy of the non-steroidal anti-inflammatory agent within the inventive composition” value was “most efficacious”.

Source: patent US20080193576A1, “Antiphlogistic and analgesic composition for topical use in a region of an animal locomotive system” (priority 2007, published 2008)
